Reference: patent publication US8901118B2, “Compounds and methods for kinase modulation, and indications therefor” (Plexxikon Inc., priority 2010, dated 2014)

Legend:
Fms kinase = Fms kinase (Homo sapiens, UniProt P07333); experiment: Fms kinase biochemical activity assay (AlphaScreen, biotin-(E4Y)10 phosphorylation); details: 100 μM ATP; read-out: Biochemical Inhibition IC50 Fms
Description: In one assay the biochemical activity IC50 values are determined with respect to inhibition of Fms kinase activity, where inhibition of phosphorylation of a peptide substrate is measured as a function of compound concentration. Compounds to be tested, dissolved in DMSO (1 μL), are added to a white 384-well plate (Costar #3705). Working stocks of Fms kinase (Invitrogen #PV3249), biotin-(E4Y)10 substrate (Upstate Biotech, Cat#12-440), and ATP (Sigma, Cat#A-3377) are prepared in 25 mM Hepes pH 7.5, 0.5 mM MgCl2, 2 mM MnCl2, 2 mM DTT, 0.01% BSA, and 0.01% Tween-20. All components are added to the 384-well plate for a final concentration of 1 ng/well Fms, 30 nM biotin-(E4Y)10 (Upstate Biotechnology) and 100 μM ATP in a volume of 20 μL. Each sample is at 5% DMSO. The plate is then incubated for 20 minutes at 30° C. Just before use, working stocks of donor and acceptor beads from the AlphaScreen PY20 Detection Kit (PerkinElmer, Cat#676601M) are prepared in 25 mM Hepes pH 7.5, pH 7.4, 100 mM EDTA, 0.01% BSA. To stop the reaction, the plate is uncovered in the dark and 5 μL of Donor Beads solution (Streptavidin beads) is added to each well. The plate is incubated at room temperature for 20 minutes. Five microliters of Acceptor Beads solution (PY20 coated beads) are then added to each well. The final concentration of each bead is 10 μg/mL. The plates are incubated at room temperature for 60 minutes. Fluorescence signal is recorded on the Envision reader. Phosphorylated substrate results in binding of the PY20 antibody and association of the donor and acceptor beads such that signal correlates with kinase activity. The signal vs. compound concentration is used to determine the IC50.

TrkA kinase = TrkA kinase (Homo sapiens, UniProt P04629); experiment: TrkA kinase biochemical activity assay (AlphaScreen); details: 100 μM ATP; read-out: Biochemical Inhibition IC50 TrkA
Sequence of TrkA kinase (P04629 33-796): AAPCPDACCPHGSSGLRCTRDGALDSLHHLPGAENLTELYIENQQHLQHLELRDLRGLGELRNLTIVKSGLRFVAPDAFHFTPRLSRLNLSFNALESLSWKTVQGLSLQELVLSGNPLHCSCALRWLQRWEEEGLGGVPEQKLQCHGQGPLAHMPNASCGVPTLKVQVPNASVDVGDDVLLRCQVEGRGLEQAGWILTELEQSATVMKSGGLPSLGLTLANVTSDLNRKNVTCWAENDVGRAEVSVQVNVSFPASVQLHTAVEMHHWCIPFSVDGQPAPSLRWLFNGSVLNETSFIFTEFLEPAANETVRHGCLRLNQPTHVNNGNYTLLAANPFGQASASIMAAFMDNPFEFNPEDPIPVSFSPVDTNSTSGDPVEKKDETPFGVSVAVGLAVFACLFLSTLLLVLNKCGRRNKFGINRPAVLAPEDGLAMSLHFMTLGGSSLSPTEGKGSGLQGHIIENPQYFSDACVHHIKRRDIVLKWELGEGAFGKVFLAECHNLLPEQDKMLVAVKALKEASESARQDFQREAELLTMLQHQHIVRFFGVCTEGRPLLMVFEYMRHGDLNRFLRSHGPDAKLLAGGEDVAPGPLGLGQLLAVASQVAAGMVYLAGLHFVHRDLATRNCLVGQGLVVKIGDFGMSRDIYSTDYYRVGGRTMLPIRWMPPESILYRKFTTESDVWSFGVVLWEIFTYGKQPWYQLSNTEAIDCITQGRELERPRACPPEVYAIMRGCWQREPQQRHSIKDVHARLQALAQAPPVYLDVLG
Description: In one assay the biochemical activity IC50 values are determined with respect to inhibition of TrkA kinase activity, where inhibition of phosphorylation of a peptide substrate is measured as a function of compound concentration. Compounds to be tested, dissolved in DMSO (1 μL), are added to a white 384-well plate (Costar #3705). Working stocks of TrkA kinase (UBI), biotin-(E4Y)10 substrate (Upstate Biotech, Cat#12-440), and ATP (Sigma, Cat#A-3377) are prepared in 25 mM Hepes pH 7.5, 10 mM MnCl2, 1 mM DTT, 0.01% BSA, and 0.01% Tween-20. All components are added to the 384-well plate for a final concentration of 1 ng/well TrkA, 30 nM biotin-(E4Y)10 and 100 μM ATP in a volume of 20 μL. Each sample is at 5% DMSO. The plate is shaken for 1 minute at 1200 rpm, spun for 1 minute at 1000 rpm, then incubated for 40 minutes at room temperature. Just before use, working stocks of donor and acceptor beads from the AlphaScreen PY20 Detection Kit (PerkinElmer, Cat#676601M) are prepared in 25 mM Hepes pH 7.5, 100 mM EDTA. 0.01% BSA. Donor Beads solution (Streptavidin beads) is added (5 μL) to each well to final bead concentration of 10 μg/mL. The plate is incubated at room temperature for 20 minutes. Acceptor Beads solution (PY20 coated beads) are then added to each well (5 μL) to a final concentration of bead at 10 μg/mL. The plates are incubated at room temperature for 60 minutes. Fluorescence signal is recorded on the Envision reader. Phosphorylated substrate results in binding of the PY20 antibody and association of the donor and acceptor beads such that signal correlates with kinase activity. The signal vs. compound concentration is used to determine the IC50. Similar assays are used for TrkB and Trk C kinase.

CYP2C19 = CYP2C19 (Homo sapiens, UniProt P33261); experiment: CYP2C19 inhibition (fluorescent substrate CEC); format: in vitro ADME; details: read-out: Cyp IC50 2C19
Sequence of CYP2C19 (P33261 whole entry): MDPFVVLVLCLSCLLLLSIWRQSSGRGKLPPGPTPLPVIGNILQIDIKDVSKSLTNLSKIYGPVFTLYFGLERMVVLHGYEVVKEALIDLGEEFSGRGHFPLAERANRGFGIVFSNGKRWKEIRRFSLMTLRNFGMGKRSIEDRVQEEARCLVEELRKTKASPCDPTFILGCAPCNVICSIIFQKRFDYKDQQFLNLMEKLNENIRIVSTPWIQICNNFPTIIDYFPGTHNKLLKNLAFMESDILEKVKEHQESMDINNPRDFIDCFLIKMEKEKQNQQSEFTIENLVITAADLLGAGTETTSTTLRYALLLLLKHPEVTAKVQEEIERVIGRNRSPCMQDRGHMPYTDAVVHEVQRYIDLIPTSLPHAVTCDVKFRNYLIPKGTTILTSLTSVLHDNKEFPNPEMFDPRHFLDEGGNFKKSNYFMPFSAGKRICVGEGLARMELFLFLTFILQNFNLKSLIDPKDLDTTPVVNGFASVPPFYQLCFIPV
Description: (§1) CYP (Cytochrome P450) enzymes are the major drug metabolizing enzymes present in the liver. The inhibition of CYP enzyme activity (IC50) for each of CYP1A2, CYP2C19, CYP2C9, CYP2D6, CYP3A4(BFC) and CYP3A4(BQ) is determined for compounds, where inhibition of metabolism of a known substrate leads to a decrease in the fluorescence of the metabolized product. The fluorescence of the product is monitored as a function of compound concentration. Compounds are dissolved in DMSO to a concentration of 100 mM. These are diluted 1 μL into 82 μL of acetonitrile. An 11 μL aliquot of this solution is then added to 204 μL of cofactor mix (1.3% NADPH Regeneration system Solution A, 1.04% NADPH Regeneration system Solution B from BD Biosciences, 5% acetonitrile and 0.05% DMSO). These are then serially diluted 1:1 (160 μL to 160 μL co-factor mix) for a total of 10 points. A 10 μL aliquot of this final mixture is dispensed into 384 well assay plates and incubated for 10 minutes at 37° C. […] Assay plates are incubated at 37° C. (CYP1A2-15 min; CYP2C9-45 min; CYP2C19, 2D6 and 3A4-30 min) and read in a Tecan Safire 2 plate reader (CYP1A2, 2C19 and 3A4 409 ex/460 em; CYP2C9 and 2D6 409 ex/530 em). The signal versus compound concentration is used to determine the IC50. The enzymes and substrates for this assay are obtained from BD Biosciences.

CYP3A4(BQ) = CYP3A4(BQ) (Homo sapiens, UniProt P08684); experiment: CYP3A4(BQ) inhibition; format: in vitro ADME; details: CYP3A4, substrate BQ; read-out: Cyp IC50 3A4(BQ)
Sequence of CYP3A4(BQ) (P08684 whole entry): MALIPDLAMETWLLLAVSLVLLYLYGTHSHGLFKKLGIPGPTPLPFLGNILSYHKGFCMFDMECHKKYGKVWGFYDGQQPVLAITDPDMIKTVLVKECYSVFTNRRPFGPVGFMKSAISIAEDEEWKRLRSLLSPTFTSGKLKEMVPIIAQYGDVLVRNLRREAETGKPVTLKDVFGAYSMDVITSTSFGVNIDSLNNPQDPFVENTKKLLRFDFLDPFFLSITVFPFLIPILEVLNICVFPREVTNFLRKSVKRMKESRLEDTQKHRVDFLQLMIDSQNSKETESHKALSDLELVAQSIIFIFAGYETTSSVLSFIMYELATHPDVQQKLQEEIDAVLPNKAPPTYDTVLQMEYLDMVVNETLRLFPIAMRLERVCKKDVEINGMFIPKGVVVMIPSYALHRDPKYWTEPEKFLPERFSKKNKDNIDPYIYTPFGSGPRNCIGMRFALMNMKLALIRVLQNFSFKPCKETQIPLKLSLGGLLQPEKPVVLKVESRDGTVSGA
Description: as §1

Sequence of Fms kinase (P07333 20-972): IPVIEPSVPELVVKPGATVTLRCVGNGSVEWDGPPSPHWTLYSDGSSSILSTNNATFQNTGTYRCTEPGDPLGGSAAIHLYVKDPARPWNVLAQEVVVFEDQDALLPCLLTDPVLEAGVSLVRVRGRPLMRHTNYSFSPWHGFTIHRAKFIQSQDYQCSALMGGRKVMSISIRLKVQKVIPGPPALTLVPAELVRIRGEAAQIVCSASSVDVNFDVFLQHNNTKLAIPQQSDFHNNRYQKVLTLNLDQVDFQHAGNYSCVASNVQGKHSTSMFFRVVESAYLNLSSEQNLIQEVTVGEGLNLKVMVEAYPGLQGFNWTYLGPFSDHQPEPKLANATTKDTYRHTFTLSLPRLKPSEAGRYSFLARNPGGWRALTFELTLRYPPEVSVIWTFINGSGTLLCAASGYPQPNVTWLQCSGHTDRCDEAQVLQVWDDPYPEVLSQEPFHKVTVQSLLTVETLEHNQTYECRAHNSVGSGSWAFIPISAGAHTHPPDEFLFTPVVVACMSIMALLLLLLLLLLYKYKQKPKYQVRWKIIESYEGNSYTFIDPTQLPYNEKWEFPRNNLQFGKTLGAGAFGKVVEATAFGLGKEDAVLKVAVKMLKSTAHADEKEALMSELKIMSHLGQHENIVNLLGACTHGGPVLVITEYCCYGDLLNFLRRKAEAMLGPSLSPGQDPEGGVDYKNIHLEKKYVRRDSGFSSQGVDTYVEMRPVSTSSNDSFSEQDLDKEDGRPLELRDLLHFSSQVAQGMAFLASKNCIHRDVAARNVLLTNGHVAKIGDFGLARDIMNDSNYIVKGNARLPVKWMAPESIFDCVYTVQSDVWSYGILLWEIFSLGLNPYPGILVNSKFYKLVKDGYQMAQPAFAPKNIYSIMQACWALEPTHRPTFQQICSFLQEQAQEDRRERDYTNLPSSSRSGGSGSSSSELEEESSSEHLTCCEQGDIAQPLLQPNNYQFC

| IC50 (Fms kinase) [µM] | IC50 (TrkA kinase) [µM] | IC50 (CYP2C19) [µM] | IC50 (CYP3A4(BQ)) [µM] | SMILES |
| --- | --- | --- | --- | --- |
| < 0.01 | < 0.01 | > 10 | > 10 | CCC(C)Nc1ncnc2[nH]cc(C(=O)c3ccc(Nc4ccc(OC)nc4)nc3F)c12 (stereo not shown) [Compound P-4078, [2-fluoro-6-[(6-methoxy-3-pyridyl)amino]-3-pyridyl]-[4-(sec-butylamino)-7H-pyrrolo[2,3-d]pyrimidin-5-yl]methanone] |
| < 0.01 | < 0.01 | 5 to 10 | > 10 | COCCCNc1ncnc2[nH]cc(C(=O)c3ccc(Nc4ccc(OC)nc4)nc3F)c12 [Compound P-4079, [2-fluoro-6-[(6-methoxy-3-pyridyl)amino]-3-pyridyl]-[4-(3-methoxypropylamino)-7H-pyrrolo[2,3-d]pyrimidin-5-yl]methanone] |
| < 0.01 | < 0.01 | > 10 | > 10 | CCCCNc1ncnc2[nH]cc(C(=O)c3ccc(Nc4ccc(OC)nc4)nc3F)c12 [Compound P-4080, [4-(butylamino)-7H-pyrrolo[2,3-d]pyrimidin-5-yl]-[2-fluoro-6-[(6-methoxy-3-pyridyl)amino]-3-pyridyl]methanone] |
| < 0.01 | < 0.01 | > 10 | > 10 | CCNc1ncnc2[nH]cc(C(=O)c3ccc(Nc4ccc(OC)nc4)nc3F)c12 [Compound P-4081, [4-(ethylamino)-7H-pyrrolo[2,3-d]pyrimidin-5-yl]-[2-fluoro-6-[(6-methoxy-3-pyridyl)amino]-3-pyridyl]methanone] |
| < 0.1 | < 0.01 | > 10 | 5 to 10 | COc1ccc(Nc2ccc(C(=O)c3c[nH]c4ncnc(NC5CCCCC5)c34)c(F)n2)cn1 [Compound P-4082, [4-(cyclohexylamino)-7H-pyrrolo[2,3-d]pyrimidin-5-yl]-[2-fluoro-6-[(6-methoxy-3-pyridyl)amino]-3-pyridyl]methanone] |
| < 0.01 | < 0.01 | > 10 | > 10 | CNc1ncnc2[nH]cc(C(=O)c3ccc(Nc4ccc(OC)nc4)nc3F)c12 [Compound P-4083, [2-fluoro-6-[(6-methoxy-3-pyridyl)amino]-3-pyridyl]-[4-(methylamino)-7H-pyrrolo[2,3-d]pyrimidin-5-yl]methanone] |
| < 0.01 | < 0.01 | 5 to 10 | > 10 | COc1ccc(Nc2ccc(C(=O)c3c[nH]c4ncnc(NCC(F)(F)F)c34)c(F)n2)cn1 [Compound P-4084, [2-fluoro-6-[(6-methoxy-3-pyridyl)amino]-3-pyridyl]-[4-(2,2,2-trifluoroethylamino)-7H-pyrrolo[2,3-d]pyrimidin-5-yl]methanone] |
| < 0.1 | < 0.01 | > 10 | > 10 | O=C(c1ccc(NC2CCC(F)(F)CC2)nc1)c1c[nH]c2ncnc(NCC(F)(F)F)c12 [Compound P-4087, [6-[(4,4-difluorocyclohexyl)amino]-3-pyridyl]-[4-(2,2,2-trifluoroethylamino)-7H-pyrrolo[2,3-d]pyrimidin-5-yl]methanone] |
| < 0.1 | < 0.01 | > 10 | > 10 | O=C(c1ccc(NC2CCC(F)(F)CC2)nc1)c1c[nH]c2ncnc(NC3CC3)c12 [Compound P-4088, [4-(cyclopropylamino)-7H-pyrrolo[2,3-d]pyrimidin-5-yl]-[6-[(4,4-difluorocyclohexyl)amino]-3-pyridyl]methanone] |
| < 0.1 | < 0.1 | > 10 | > 10 | CNc1ncnc2[nH]cc(C(=O)c3ccc(NC4CCC(F)(F)CC4)nc3)c12 [Compound P-4089, [6-[(4,4-difluorocyclohexyl)amino]-3-pyridyl]-[4-(methylamino)-7H-pyrrolo[2,3-d]pyrimidin-5-yl]methanone] |
| < 0.1 | < 0.1 | > 10 | > 10 | O=C(c1ccc(Nc2ccc(C3CC3)nc2)nc1F)c1c[nH]c2ncnc(NCC(F)(F)F)c12 [Compound P-4090, [6-[(6-cyclopropyl-3-pyridyl)amino]-2-fluoro-3-pyridyl]-[4-(2,2,2-trifluoroethylamino)-7H-pyrrolo[2,3-d]pyrimidin-5-yl]methanone] |
| < 0.1 | < 0.01 | > 10 | > 10 | O=C(c1ccc(Nc2ccc(C(F)(F)F)nc2)nc1F)c1c[nH]c2ncnc(NC3CC3)c12 [Compound P-4091, [4-(cyclopropylamino)-7H-pyrrolo[2,3-d]pyrimidin-5-yl]-[2-fluoro-6-[[6-(trifluoromethyl)-3-pyridyl]amino]-3-pyridyl]methanone] |
| < 0.01 | < 0.01 | < 5 | > 10 | CNc1ncnc2[nH]cc(C(=O)c3ccc(Nc4ccc(C(F)(F)F)nc4)nc3F)c12 [Compound P-4092, [2-fluoro-6-[[6-(trifluoromethyl)-3-pyridyl]amino]-3-pyridyl]-[4-(methylamino)-7H-pyrrolo[2,3-d]pyrimidin-5-yl]methanone] |
| < 0.01 | < 0.01 | > 10 | > 10 | O=C(c1ccc(Nc2ccc(C3CC3)nc2)nc1F)c1c[nH]c2ncnc(NC3CC3)c12 [Compound P-4093, [4-(cyclopropylamino)-7H-pyrrolo[2,3-d]pyrimidin-5-yl]-[6-[(6-cyclopropyl-3-pyridyl)amino]-2-fluoro-3-pyridyl]methanone] |
| < 0.01 | < 0.01 | < 5 | > 10 | CNc1ncnc2[nH]cc(C(=O)c3ccc(Nc4ccc(C5CC5)nc4)nc3F)c12 [Compound P-4094, [6-[(6-cyclopropyl-3-pyridyl)amino]-2-fluoro-3-pyridyl]-[4-(methylamino)-7H-pyrrolo[2,3-d]pyrimidin-5-yl]methanone] |
| < 0.01 | < 0.01 | > 10 | > 10 | CCc1ccc(Nc2ccc(C(=O)c3c[nH]c4ncnc(NC5CCC5)c34)c(F)n2)cn1 [Compound P-4095, [4-(cyclobutylamino)-7H-pyrrolo[2,3-d]pyrimidin-5-yl]-[6-[(6-ethyl-3-pyridyl)amino]-2-fluoro-3-pyridyl]methanone] |
